Test results: patent publication US12171554B2, “Marker monitoring via a medical device” (Medtronic, Inc., priority 2017, dated 2024)

Test: Fluorophore detection in interstitial fluid (ISF) of rats after IV or PO dosing, subcutaneous optical PMMA fiber and reader device
Conditions: rat, in vivo
Excerpt: Study Protocol: The purpose of the study was to investigate in an acute or semi-chronic rat trial set-up if fluorophores are detectable in the ISF (InterStitial Fluid) when injected IV or given to the rat Per Oral (PO). Four rat subjects (Rat 001, Rat 002, Rat 003, and Rat 004) were included in the study. The procedure of the study was as follows: Rat subjects were Sprague Dawley rats, male, Diet Induced Obese (DIO). For each rat, the rat was anaesthesized, shaved and cleaned on the back for PMMA optical fiber insertion. A tail venous catheter was placed and two 250 um optical PMMA fibers were placed in the subcutaneous fat tissue of the DIO rat. The base and tape of the sensor unit was sutured to the skin.
For Rats 001 and 002, a reader device suitable for indocyanine green dye detection was mounted. [ . . . ] Rat 002 died during oral dosing while under anesthesia due to lack of swallowing reflex.
For Rats 003 and 004 reader devices suitable for Alexa Fluor 594™ (AF594) detection were mounted. Recording began using RF data transfer (GST protocol, MDT Diabetes). A first IV injection of 0.01 mg AF594 was injected (1 mL into tail vein). Rise and decay of fluorescence was observed before a second injection of 1 mL of 0.01 mg AF594 into the tail vein. Anesthesia then was removed and the rat was placed into a cage. […]

## CC1(C)C(/C=C/C=C/C=C/C=C2\N(CCCCS(=O)(=O)O)c3ccc4ccccc4c3C2(C)C)=[N+](CCCCS(=O)(=O)[O-])c2ccc3ccccc3c21 [Indo Cyanine Green]
  clearance from the ISF after IV dosing: relatively fast clearance
  signal in ISF after IV dosing: distinct signals
